In patent US20040230057A1, “Dye for optical recording medium” (priority 2003, published 2004):

Assays:
[1] = UV-visible absorption spectroscopy; assay type: physicochemical; details: for absorption wavelength: UV-visible absorption spectrum; for Maximum Absorption Wavelength: methanol
Source text: (§1) The results of the thermal gravametric analysis and the ultraviolent-visible absorption spectroscopy of the optical recording medium dyes obtained in the above experiment 1 to experiment 8 are summarized in Table 1. The thermal gravametric analysis and the ultraviolent-visible absorption spectroscopy detect, respectively, the thermal breakdown temperature (the temperature of a 5% thermal weight loss) and the optical property (the largest absorption wavelength, absorption coefficient of the solution). […] Further, the thermal breakdown temperatures are above 250 degrees Celsius. Accordingly, the optical recording medium dyes of the present invention comprises a broad wavelength range and has favorable thermal stability and solubility.

[2] = thermal gravimetric analysis; assay type: physicochemical; details: for Thermal Breakdown Temperature: temperature of a 5% thermal weight loss; for temperature of sudden weight loss (thermal breakdown temperature): thermal gravimetric analysis
Source text: as §1

Row | SMILES | absorption wavelength [1] [nm] | Maximum Absorption Wavelength [1] [nm] | Thermal Breakdown Temperature [2] [°C] | temperature of sudden weight loss (thermal breakdown temperature) [2]
1 | CCCCN1C(=CC=Cc2ccc3ccccc3[n+]2CCCC)C(C)(C)c2cc(Cl)ccc21 [Experiment 1] | 561.8 | 561.8 | 280.2 | about 280.2 degrees Celsius
2 | CCCCN1C(=CC=Cc2ccc3ccccc3[n+]2CCCC)C(C)(C)c2c1ccc1ccccc21 [Experiment 2] | 583.0 | 583.0 | 268.6 | about 268.6 degrees Celsius
3 | CCCCN1C(=CC=Cc2ccc3ccccc3[n+]2CCCC)C(C)(C)c2c1ccc1ccccc21 [Experiment 3] | 583.0 | 583.0 | 274.2 | about 274.2 degrees Celsius
4 | CCCCN1C(=CC=Cc2cc[n+](CC)c3ccccc23)C(C)(C)c2c1ccc1ccccc21 [Experiment 7] | 625 | 625.0 | 270.7 | about 270.7 degrees Celsius

Continued, values first:

Row | absorption wavelength [1] [nm] | Maximum Absorption Wavelength [1] [nm] | Thermal Breakdown Temperature [2] [°C] | temperature of sudden weight loss (thermal breakdown temperature) [2] | SMILES
5 | 548.2 | 548.2 | 309.5 | about 309.5 degrees Celsius | CCCC[n+]1c(C=CC=C2N(C)c3ccc([N+](=O)[O-])cc3C2(C)C)ccc2ccccc21 [Experiment 4]
6 | 598.4 | 598.4 | 266.3 | about 266.3 degrees Celsius | CCCCN1C(=CC=Cc2cc[n+](CC)c3ccccc23)C(C)(C)c2cc(Cl)ccc21 [Experiment 5]
7 | 570.0 | 570.0 | 302.7 | about 302.7 degrees Celsius | CC[n+]1ccc(C=CC=C2N(C)c3ccc([N+](=O)[O-])cc3C2(C)C)c2ccccc21 [Experiment 6]
